Data set [1] concerns MCF7. Briefly: Selectivity index, ratio of IC50 for human GM5657 cells to IC50 for human MCF7 cells. It counts as functional.
A short description of data set [2]: Ratio of IC50 for human GM5657 cells to MIC for Staphylococcus aureus DSM 20231. It counts as functional.
The nature of data set [3]: Selectivity index, ratio of IC50 for human GM5657 cells to IC50 for human HT29 cells. It counts as functional.
A short description of data set [4]: Cytotoxicity against human GM5657 cells assessed as inhibition of cell viability after 48 hrs by crystal violet assay. In kind it is cell-based. To be noted: GM5657, 48 h.
Another data set concerns HT-29. The experiment in a line: Cytotoxicity against human HT-29 cells assessed as inhibition of cell viability after 48 hrs by crystal violet assay. It counts as functional, cell-based. To be noted: HT-29, 48 h.
In data set [5] the test system is MCF7. Briefly: Cytotoxicity against human MCF7 cells assessed as inhibition of cell viability after 48 hrs by crystal violet assay. It counts as functional, cell-based. The following applies: MCF7, 48 h.
The nature of data set [6]: Hemolytic activity against human RBC assessed as hemoglobin leakage at 500 ug/ml after 5 mins. It counts as ADME, cell-based, Erythrocyte. The following applies: human red blood cells, read-out: Activity.
The subject of data set [7] is Bacillus subtilis. Briefly: Bactericidal activity against Bacillus subtilis 168 (trpC2)2 assessed as survival rate at twice MIC concentration incubated for 15 mins measured after 18 hrs. In kind it is functional, subsp. subtilis str. 168 (trpC2)2.
Data set [8] in a line: Hemolytic activity against human RBC assessed as hemoglobin leakage. In kind it is ADME, cell-based, Erythrocyte. To be noted: human red blood cells.
A short description of data set [9]: Hemolytic activity against human RBC assessed as hemoglobin leakage at 250 ug/ml. It counts as ADME, cell-based, Erythrocyte. To be noted: human red blood cells, read-out: Activity.
Data set [10] concerns Bacillus subtilis. The experiment in a line: Antibacterial activity against Bacillus subtilis 168 DSM 402 assessed as growth inhibition after 18 hrs. In kind it is functional. The following applies: subsp. subtilis str. 168 DSM 402, 18 h.
Data set [11] deals with Staphylococcus aureus. Briefly: Antibacterial activity against Staphylococcus aureus ATCC 43300 assessed as growth inhibition after 18 hrs. It counts as functional. The following applies: ATCC 43300, 18 h.
The test system of data set [12] is Staphylococcus aureus. The experiment in a line: Antibacterial activity against Staphylococcus aureus DSM 20231 assessed as growth inhibition after 18 hrs. In kind it is functional. The following applies: DSM 20231, 18 h.
The subject of another data set is Pseudomonas aeruginosa. The experiment in a line: Antibacterial activity against Pseudomonas aeruginosa DSM 50071 assessed as growth inhibition after 18 hrs. To be noted: DSM 50071, 18 h. In kind it is functional.
Another data set has as its system Acinetobacter baumannii. The experiment in a line: Antibacterial activity against Acinetobacter baumannii DSM 30007 assessed as growth inhibition after 18 hrs. It counts as functional. The following applies: DSM 30007, 18 h.
A further data set has as its system Escherichia coli. Briefly: Antibacterial activity against Escherichia coli DSM 30083 assessed as growth inhibition after 18 hrs. It counts as functional. The following applies: DSM 30083, 18 h.

Molecules are shown by their SMILES. In brackets after ≈: the same amount, converted by molar mass. Peptide text beside a SMILES is read from it. * marks the point of attachment. Octanoyl = CCCCCCCC(=O)* A value given as a limit tells only on which side of the number the result lay.

Consider `CCCCCCCC(=O)NCCCC[C@H](N)C(=O)N[C@@H](CCCNC(=N)N)C(=O)N[C@@H](Cc1c[nH]c2ccccc12)C(=O)N[C@@H](CCCNC(=N)N)C(=O)N[C@@H](Cc1c[nH]c2ccccc12)C(=O)N[C@@H](CCCNC(=N)N)C(=O)N[C@@H](Cc1c[nH]c2ccccc12)C(N)=O` (H-K(Octanoyl)RWRWRW-NH2), for which the “Ratio IC50” value is recorded as 7 with MCF7 [1], 15 in [2] and 7 in [3]. The half-inhibitory concentration (IC50) in data set [4] was determined as 32.5 µM; in the data set on HT-29, 4.3 µM; in the data set on MCF7 [5], 4.6 µM. Also, the hemolysis at 5 min, 500 ug/ml in [6] came out at 88%. The Survival in the data set with Bacillus subtilis [7] was determined as 0.006%. Further, the HC50 in data set [8] amounted to 114 µM. Moreover, the hemolysis at 250 ug/ml in [9] is above 50%. Further, the MIC with Bacillus subtilis [10] stood at 0.6 µM (≈ 0.779 µg/mL); in the data set with Staphylococcus aureus [11], 1 µM (≈ 1.3 µg/mL); with Staphylococcus aureus [12], 2 µM (≈ 2.6 µg/mL); in the data set with Pseudomonas aeruginosa, 9 µM (≈ 11.7 µg/mL); with Acinetobacter baumannii, 9 µM (≈ 11.7 µg/mL); in the data set on Escherichia coli it was 5 µM (≈ 6.49 µg/mL).
For `CCCCCCCC(=O)NCCCC[C@H](NC(=O)[C@H](Cc1c[nH]c2ccccc12)NC(=O)[C@H](CCCNC(=N)N)NC(=O)[C@H](Cc1c[nH]c2ccccc12)NC(=O)[C@H](CCCNC(=N)N)NC(=O)[C@H](Cc1c[nH]c2ccccc12)NC(=O)[C@@H](N)CCCNC(=N)N)C(N)=O` (H-RWRWRWK(Octanoyl)-NH2), the “Ratio IC50” value in the data set on MCF7 [1] was 7; in data set [2] it was 15; in data set [3] it was 7. In addition, the concentration for half-maximal inhibition (IC50) came to 31.3 µM in data set [4], 4.5 µM in the data set with HT-29 and 4.7 µM with MCF7 [5]. Besides, the hemolysis at 5 min, 500 ug/ml in data set [6] was found to be 48%. Besides, in the data set on Bacillus subtilis [7], the Survival stood at 0.261%. For the same compound, the 50% haemolytic concentration (HC50) in data set [8] turned out to be 285 µM. Also, in data set [9], the hemolysis at 250 ug/ml stood at 10%. Also, the minimum inhibitory concentration (MIC) in the data set on Bacillus subtilis [10] amounted to 0.6 µM (≈ 0.779 µg/mL); in the data set with Staphylococcus aureus [11] it was 2 µM (≈ 2.6 µg/mL); with Staphylococcus aureus [12], 2 µM (≈ 2.6 µg/mL); in the data set with Pseudomonas aeruginosa, 18 µM (≈ 23.4 µg/mL); in the data set on Acinetobacter baumannii, 5 µM (≈ 6.49 µg/mL); with Escherichia coli, 2 µM (≈ 2.6 µg/mL).

One may read the IC50 as the concentration that inhibits the measured activity by half. By HC50 is commonly meant the concentration that lyses half of the red blood cells. For orientation: MIC means the smallest concentration in the dilution series that meets the test's criterion for growth inhibition.

(Values after ChEMBL document CHEMBL2203177, “Tuning the activity of a short arg-trp antimicrobial Peptide by lipidation of a C- or N-terminal lysine side-chain” (ACS Med Chem Lett, 2012).)
